The test system of series [1] is Phakopsora pachyrhizi. The series is described as follows: Phakopsora pachyrhizi / soybean / leaf disc preventative (Asian soybean rust). The class given is in vivo. The settings on record: foliar, 200 ppm in the applied formulation, soybean leaf disks, inoculated one day after application, vs untreated, 12 to 14 days after application, read-out: disease control. The method in brief:
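Soybean leaf discs on water agar sprayed with formulated compound diluted in water, then inoculated one day later with spore suspension on the lower surface. Held 24-36 h dark at 20 °C, 75% rh, then 12 h light/day; percent disease control versus untreated scored 12-14 days after application.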

Series [2] concerns Uromyces viciae-fabae. In words: Uromyces viciae-fabae / field bean / leaf disc preventative (faba-bean rust). In kind it is in vivo. The settings on record: foliar, 288 h, 100 ppm in the applied formulation, field bean leaf discs, inoculated two hours after application, vs untreated, 12 days after application, read-out: disease control. The protocol:
Leaf disks or leaf segments of various plant species are cut from plants grown in a greenhouse. The cut leaf disks or segments are placed in multiwell plates (24-well format) onto water agar. The leaf disks are sprayed with a test solution before (preventative) or after (curative) inoculation. Compounds to be tested are prepared as DMSO solutions (max. 10 mg/ml) which are diluted to the appropriate concentration with 0.025% Tween20 just before spraying. The inoculated leaf disks or segments are incubated under defined conditions (temperature, relative humidity, light, etc.) according to the respective test system. A single evaluation of disease level is carried out 3 to 14 days after inoculation, depending on the pathosystem. Percent disease control relative to the untreated check leaf disks or segments is then calculated.
Example 5: Fungicidal Activity Against Uromyces viciae-fabael Field Bean/Leaf Disc Preventative (Faba-Bean Rust)
Field bean leaf discs are placed on water agar in multiwell plates (96-well format) and 10 μl of the Formulated test compound diluted in acetone and a spreader pipetted onto the leaf disc. Two hours after application leaf discs are inoculated by spraying a spore suspension on the lower leaf surface. The leaf discs are incubated in a climate cabinet at 22° C. with 18 hour day and 70% relative humidity. The activity of a compound is assessed as percent disease control compared to untreated when an appropriate level of disease damage appears in untreated check leaf disks (12 days after application).
The following compounds at 100 ppm in the applied Formulation give at least 80% disease control in this test when compared to untreated control leaf discs under the same conditions, which show extensive disease development.

Series [3] concerns Glomerella lacenarium (Colletotrichum lacenarium). The series is described as follows: Glomerella lacenarium (Colletotrichum lacenarium) liquid culture / cucumber / preventative (anthracnose). The settings on record: 20 ppm, liquid culture in PDB, 24° C., inhibition of growth measured photometrically 3 to 4 days after application, vs untreated, read-out: disease control. The class given is cell-based. In short, it runs like this:
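Cryopreserved conidia in potato dextrose broth were added to test compound in a 96-well microtiter plate and incubated at 24 °C. Growth inhibition read photometrically 3–4 days after application, as percent activity versus untreated check.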

Series [4] deals with Puccinia recondita f. Sp. Tritici. In words: Puccinia recondita f. sp. tritici / wheat / leaf disc curative (brown rust). The settings on record: foliar, 200 ppm in the applied formulation, wheat leaf segments cv. Kanzler, compound applied 1 day after inoculation, vs untreated, 6 to 8 days after application, read-out: disease control. The class given is in vivo. The method in brief:
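Wheat leaf segments (cv. Kanzler) on agar inoculated with brown rust spores, held dark at 19 °C/75% RH, then sprayed 1 day post-inoculation with formulated compound diluted in water (curative). Incubated at 19 °C/75% RH, 12 h light/12 h dark; percent disease control versus untreated scored 6–8 days after application.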

Series [5] has the same test system. The series is described as follows: Puccinia recondita f. sp. tritici / wheat / leaf disc preventative (brown rust). In kind it is in vivo. The settings on record: foliar, 200 ppm in the applied formulation, wheat leaf segments cv. Kanzler, inoculated 1 day after application, vs untreated, 7 to 9 days after application, read-out: disease control. In short, it runs like this:
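Preventative leaf-segment test on wheat cv. Kanzler: formulated compound diluted in water was sprayed onto segments on agar, with spore inoculation 1 day later. Incubated at 19° C, 75% rh, 12 h light/12 h dark; percent disease control versus untreated scored 7 to 9 days after application.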

For `O=C(Nc1ccc(-c2noc(C(F)(F)F)n2)cc1)c1cncc(N2CCOCC2)n1` [Compound 1.2, 6-morpholino-N-[4-[5-(trifluoromethyl)-1,2,4-oxadiazol-3-yl]phenyl]pyrazine-2-carboxamide], the pest or weed control at 200 ppm in series [1] is at least 80%. Also, in series [2], the pest or weed control at 100 ppm was at least 80%.
`CC12CCC(C(=O)Nc3ccc(-c4noc(C(F)(F)F)n4)cc3)(OC1=O)C2(C)C` (centres unmarked) [Compound 1.4, 1,7,7-trimethyl-2-oxo-N-[4-[5-(trifluoromethyl)-1,2,4-oxadiazol-3-yl]phenyl]-3-oxabicyclo[2.2.1] heptane-4-carboxamide]: in series [1], the pest or weed control at 200 ppm was at least 80%. Moreover, in series [3], the inhibition of growth at 20 ppm was at least 80%. Further, the pest or weed control at 100 ppm in series [2] is at least 80%.
For the compound `C#CC(C)(C)C(=O)Nc1ccc(-c2noc(C(F)(F)F)n2)cc1` [Compound 1.5, 2,2-dimethyl-N-[4-[5-(trifluoromethyl)-1,2,4-oxadiazol-3-yl]phenyl]but-3-ynamide], the pest or weed control at 200 ppm in series [4], in series [5] and in series [1] was at least 80% in each case. Further, the inhibition of growth at 20 ppm in series [3] was at least 80%. Moreover, the pest or weed control at 100 ppm in series [2] was at least 80%.
`COc1cc(C(=O)Nc2ccc(-c3noc(C(F)(F)F)n3)cc2)cc(OC)c1OC` [Compound 1.6, 3,4,5-trimethoxy-N-[4-[5-(trifluoromethyl)-1,2,4-oxadiazol-3-yl]phenyl]benzamide]: the pest or weed control at 200 ppm in series [5] and in series [1] was at least 80% each time. In series [2], the pest or weed control at 100 ppm was at least 80%.
Turning to `O=C(Nc1ccc(-c2noc(C(F)(F)F)n2)cc1)C(F)c1ccccc1` (centres unmarked) [Compound 1.16, 2-fluoro-2-phenyl-N-[4-[5-(trifluoromethyl)-1,2,4-oxadiazol-3-yl]phenyl]acetamide], the pest or weed control at 200 ppm in series [5] and in series [1] was at least 80% each time. The inhibition of growth at 20 ppm in series [3] was at least 80%. Further, in series [2], the pest or weed control at 100 ppm is at least 80%.
As to `O=C(CCC(F)(F)F)Nc1ccc(-c2noc(C(F)(F)F)n2)cc1` [Compound 1.20, 4,4,4-trifluoro-N-[4-[5-(trifluoromethyl)-1,2,4-oxadiazol-3-yl]phenyl]butanamide], the pest or weed control at 200 ppm in series [5] and in series [1] was at least 80% in each case. Further, the inhibition of growth at 20 ppm in series [3] is at least 80%. For the same compound, the pest or weed control at 100 ppm in series [2] is at least 80%.
For the compound `O=C(Cn1cncn1)Nc1ccc(-c2noc(C(F)(F)F)n2)cc1` [Compound 1.23, 2-(1,2,4-triazol-1-yl)-N-[4-[5-(trifluoromethyl)-1,2,4-oxadiazol-3-yl]phenyl]acetamide], the pest or weed control at 200 ppm in series [5] is at least 80%. In addition, the inhibition of growth at 20 ppm in series [3] was at least 80%. The pest or weed control at 100 ppm in series [2] is at least 80%.
`CC(C)NC(=O)c1c(F)cccc1C(=O)Nc1ccc(-c2noc(C(F)(F)F)n2)cc1` [Compound 1.29, 3-fluoro-N2-isopropyl-N1-[4-[5-(trifluoromethyl)-1,2,4-oxadiazol-3-yl]phenyl] phthalamide]: the pest or weed control at 200 ppm in series [5] and in series [1] was at least 80% each time. In series [3], the inhibition of growth at 20 ppm is at least 80%. Besides, the pest or weed control at 100 ppm in series [2] is at least 80%.
As for `COC1=CC(=O)CC(C(=O)Nc2ccc(-c3noc(C(F)(F)F)n3)cc2)C1` (centres unmarked) [Compound 1.31, 3-methoxy-5-oxo-N-[4-[5-(trifluoromethyl)-1,2,4-oxadiazol-3-yl]phenyl]cyclohex-3-ene-1-carboxamide], the pest or weed control at 200 ppm in series [5] and in series [1] was at least 80% throughout. Also, the inhibition of growth at 20 ppm in series [3] is at least 80%. Further, in series [2], the pest or weed control at 100 ppm was at least 80%.
For `CC(=O)N(C(C)=O)c1ccc(-c2noc(C(F)(F)F)n2)cn1` [Compound 1.45, N-acetyl-N-[5-[5-(trifluoromethyl)-1,2,4-oxadiazol-3-yl]-2-pyridyl]acetamide], the pest or weed control at 200 ppm in series [4], in series [5] and in series [1] was at least 80% each time. Further, the inhibition of growth at 20 ppm in series [3] is at least 80%. In series [2], the pest or weed control at 100 ppm was at least 80%.
`CC(=O)N(CC(=O)NC(C)(C)C)c1ccc(-c2noc(C(F)(F)F)n2)cc1` [Compound 1.56, 2-[N-acetyl-4-[5-(trifluoromethyl)-1,2,4-oxadiazol-3-yl]anilino]-N-tert-butyl-acetamide]: the pest or weed control at 200 ppm in series [4] and in series [5] was at least 80% throughout. Further, the inhibition of growth at 20 ppm in series [3] is at least 80%. Moreover, the pest or weed control at 100 ppm in series [2] is at least 80%.
In the case of `CCC(=O)N(CC(=O)NC(C)(C)C)c1ccc(-c2noc(C(F)(F)F)n2)cc1` [Compound 1.57, N-[2-(tert-butylamino)-2-oxo-ethyl]-N-[4-[5-(trifluoromethyl)-1,2,4-oxadiazol-3-yl]phenyl] propanamide], the pest or weed control at 200 ppm in series [5] is at least 80%. Besides, the inhibition of growth at 20 ppm in series [3] is at least 80%. Further, in series [2], the pest or weed control at 100 ppm was at least 80%.
The term melting point denotes the temperature of the solid-liquid transition. `CONC(=O)Nc1ccc(-c2noc(C(F)(F)F)n2)cn1` [Compound 1.63, 1-methoxy-3-[5-[5-(trifluoromethyl)-1,2,4-oxadiazol-3-yl]-2-pyridyl]urea] gave a melting point of 151 to 154 °C. The pest or weed control at 200 ppm in series [1] was at least 80%. For the same compound, the inhibition of growth at 20 ppm in series [3] was at least 80%.
Regarding `CON(C)C(=O)Nc1ccc(-c2noc(C(F)(F)F)n2)cn1` [Compound 1.64, 1-methoxy-1-methyl-3-[5-[5-(trifluoromethyl)-1,2,4-oxadiazol-3-yl]-2-pyridyl]urea], the melting point lay within 83 to 87 °C. The pest or weed control at 200 ppm in series [5] was at least 80%. The inhibition of growth at 20 ppm in series [3] was at least 80%.
Compound `CC(C)=CCONC(=O)Nc1ccc(-c2noc(C(F)(F)F)n2)cc1` [Compound 1.66, 1-(3-methylbut-2-enoxy)-3-[4-[5-(trifluoromethyl)-1,2,4-oxadiazol-3-yl]phenyl]urea] gave a melting point of 118 to 121 °C. For the same compound, in series [5], the pest or weed control at 200 ppm was at least 80%. Moreover, in series [3], the inhibition of growth at 20 ppm was at least 80%.
`CON(CC1CC1)C(=O)Nc1ccc(-c2noc(C(F)(F)F)n2)cc1` [Compound 1.69, 1-(cyclopropylmethyl)-1-methoxy-3-[4-[5-(trifluoromethyl)-1,2,4-oxadiazol-3-yl]phenyl]urea]: the melting point was in the range of 117 to 120 °C. In series [3], the inhibition of growth at 20 ppm is at least 80%.
The compound `O=C(NOCc1ccccc1F)Nc1ccc(-c2noc(C(F)(F)F)n2)cc1` [Compound 1.127, 1-[(2-fluorophenyl)methoxy]-3-[4-[5-(trifluoromethyl)-1,2,4-oxadiazol-3-yl]phenyl]urea] came in with a melting point of 140 to 143 °C. Also, the inhibition of growth at 20 ppm in series [3] was at least 80%.
Take `CN(C(=O)C1CCC1)c1ccc(-c2noc(C(F)(F)F)n2)cc1` [Compound 2.25, N-methyl-N-[4-[5-(trifluoromethyl)-1,2,4-oxadiazol-3-yl]phenyl]cyclobutane-carboxamide]: the pest or weed control at 200 ppm in series [4], in series [5] and in series [1] was at least 80% throughout. The inhibition of growth at 20 ppm in series [3] was at least 80%. In addition, the pest or weed control at 100 ppm in series [2] is at least 80%.
`CONC(=O)Nc1ccc(-c2noc(C(F)(F)F)n2)cc1` [Compound 2.30, 1-methoxy-3-[4-[5-(trifluoromethyl)-1,2,4-oxadiazol-3-yl]phenyl]urea] had a melting point of 152 to 155 °C. Also, the pest or weed control at 200 ppm in series [5] is at least 80%. The inhibition of growth at 20 ppm in series [3] was at least 80%.

(Values after patent publication US20200022370A1, “MICROBIOCIDAL OXADIAZOLE DERIVATIVES” (SYNGENTA PARTICIPATIONS AG, priority 2016, published 2020).)
